From US20150374844A1, “NOVEL PH -SWITCHABLE PEPTIDES FOR MEMBRANE INSERTION AND PORE FORMATION” (UNIVERSITY OF PENNSYLVANIA, priority 2013, published 2015)
No end group written: not given here.

What was measured:
Red Blood Cells (RBCs) = test: Human red blood cell hemolysis assay (hemoglobin release)
Protocol: Human Red Blood hemolysis assay was carried out as described below.
About 5 ml human blood from healthy individuals were transferred into a 50 ml centrifuge tube and either re-suspended in 35 ml buffer pH 5.4 (150 mM NaCl, 20 mM MES) or pH 7.5 (150 mM NaCl, 20 mM Hepes). Red Blood Cells (RBCs) were washed 3 times with the appropriate buffer and finally re-suspended in a total of 50 ml buffer (pH 5.4 or 7.5). For the assay 175 μl of buffer solution (pH 5.4 or 7.5) was added into each well of a clear-bottom 96-well plate followed by 50 μl of re-suspended RBCs (approx. 2.5×10^7 cells) in the appropriate buffer (for RBC transfer wide bore pipet tips were used to avoid cell damage). Test PSPF peptides (New England Peptide TM) at the appropriate concentration were diluted in 25 μl PBS and then added to the cells. All steps were done with chilled buffers and on ice. The suspension was then mixed 6-8 times by pipetting with wide bore tips, the plate was covered and incubated at 37° C. for indicated time.
After incubation the cells were centrifuged for 5 min at 500×g and 150 μl of the supernatant was transferred into a new 96-well clear-bottom plate. Absorbance at 541 nm was measured and hemolysis was normalized to RBCs which have been incubated in the presence of 1% Triton X-100 (100% hemolysis).
Red blood cell (RBC) lysis assays was used to screen the functional efficacy of the PSPF peptides upon delivery (Table 5). The release of ATP, miRNA and hemoglobin has been studied at both pH 7.5 and 5.4.
A desirable peptide should also negate membrane disruption, as assessed by leakage of proteins such as hemoglobin at both pH values. Therefore the peptides were first screened for hemolytic activity at both pH 7.5 and pH 5.4.

[1] = siRNA co-transfection assay, cell viability; type: cell-based; design: concentration or dose not given beside the values; conditions: co-transfection of peptide and siRNA
Description: The protocol and siRNA reagent (target SSB gene) described in the following publication was followed: Bartz R, Fan H, Zhang J, Innocent N, Cherrin C, Beck S C, Pei Y, Momose A, Jadhav V, Tellers D M, Meng F, Crocker L S, Sepp-Lorenzino L, Barnett S F. Effective siRNA delivery and target mRNA degradation using an amphipathic peptide to facilitate pH-dependent endosomal escape. Biochem J. 2011; 435:475-87.

[2] = target: the molecule itself; test: CD thermal denaturation of the hexamer, Gibbs-Helmholtz fit, pH 5.5
Protocol: (§1) Furthermore, thermal denaturation by circular dichroism (CD) was used to study the thermal stability of the PSPF-EKG hexamer at multiple concentrations (2 μM, 4 μM and 20 μM), and at both pH 7.4 (FIG. 8A) and pH 5.5 (FIG. 8B). For each pH, to the curves were analyzed according to the Gibbs-Helmholtz Equation, using global least squares fitting of ΔHm, Tm and baselines. Tm was chosen as a global parameter defined with a reference concentration of 4 μM. ΔCp was also included, but over the range of experimental data examed, this parameter was not well defined.

[3] = target: the molecule itself; test: CD thermal denaturation of the hexamer, Gibbs-Helmholtz fit, pH 7.4
Protocol: as §1

[4] = target: the molecule itself; test: size exclusion chromatography, self-association, pH 7.4 (Table 7 prints 6.6)
Protocol: Size exclusion chromatography (SEC) of 100 μM PSPF-EKG and 100 μM PSPF-DKG were measured by AKTA FPLC machine (GE) using a Superdex 75 column (GE) eluted at pH 7.4 (50 mM Tris, 150 mM NaCl) and pH 5.5 (50 mM MES, 150 mM NaCl) respectively, at 25° C. Four standards were used: blue dextran (2,000,000 g/mol), carbonic anhydrase (29,000 g/mol), cytochrome C (12,400 g/mol) and aprotinin (6,500 g/mol). In order to test the effect of salt concentration upon peptide elution, the elutions of PSPF-EKG were also measured at pH 7.4 (50 mM Tris, 2M NaCl) and pH 5.5 (50 mM MES, […]), respectively.
Size exclusion chromatography—The association state of the PSPF peptide PSPF-EKG was initially investigated by size exclusion chromatography (SEC) using a Superdex 75 column (GE Healthcare) eluted at pH 7.4 (150 mM NaCl, 50 mM Tris) and pH 5.5 (150 mM NaCl, 50 mM MES) respectively. In addition, PSPF-DKG was also investigated to determine the effect of substituting Asp for Glu on the stability of the water-soluble bundle at each pH. To determine the approximate oligomerization states, four standards were used, shown by blue eluting peaks in FIG. 4: blue dextran (2,000,000 g/mol), carbonic anhydrase (29,000 g/mol), cytochrome C (12,400 g/mol) and aprotinin (6,500 g/mol).

[5] = pH 5.4, compared to triton-x-100
[6] = pH 7.5, compared to triton-x-100

Molecule | Hemoglobin Release (Red Blood Cells (RBCs); [5]) | Hemoglobin Release (Red Blood Cells (RBCs); [6]) | viability [1] [%] | Hemoglobin Release (Red Blood Cells (RBCs); pH 5.4) | Hemoglobin Release (Red Blood Cells (RBCs); pH 7.5) | [PSPF-EKG] at 50% fold and 300 K [2] [µM] | [PSPF-EKG] at 50% fold and 300 K [3] [µM] | apparent molecular weight, fold of calculated molecular weight [4] [fold]
WSDLAKALSDLAKALSDLAKALSDLAKA [PSPF-DKA, WSDLAKA LSDLAKA LSDLAKA LSDLAKA] | none | none | 101 |  |  |  |  | 
WSDLAKGLSDLAKGLSDLAKGLSDLAKG [PSPF-DKG, WSDLAKG LSDLAKG LSDLAKG LSDLAKG] | none | none | 104 |  |  |  |  | 
WSDLAQALSDLAQALSDLAQALSDLAQA [PSPF-DQA, WSDLAQA LSDLAQA LSDLAQA LSDLAQA] | none | none | 100 |  |  |  |  | 
WSDLAQGLSDLAQGLSDLAQGLSDLAQG [PSPF-DQG, WSDLAQG LSDLAQG LSDLAQG LSDLAQG] | none | none | 98 |  |  |  |  | 
WSELAKALSELAKALSELAKALSELAKA [PSPF-EKA, WSELAKA LSELAKA LSELAKA LSELAKA] |  |  | 105 | none | none |  |  | 
WSELAKGLSELAKGLSELAKGLSELAKG [PSPF-EKG, WSELAKG LSELAKG LSELAKG LSELAKG] |  |  | 102 |  |  |  |  | 
WSELAQALSELAQALSELAQALSELAQA [PSPF-EQA, WSELAQA LSELAQA LSELAQA LSELAQA] |  |  | 103 | none | none |  |  | 
WSELAQGLSELAQGLSELAQGLSELAQG [PSPF-EQG, WSELAQG LSELAQG LSELAQG LSELAQG] |  |  | 105 | none | none |  |  | 
WSHLAKALSHLAKALSHLAKALSHLAKA [PSPF-HKA, WSHLAKA LSHLAKA LSHLAKA LSHLAKA] |  |  | 97 | none | none |  |  | 
WSHLAKGLSHLAKGLSHLAKGLSHLAKG [PSPF-HKG, WSHLAKG LSHLAKG LSHLAKG LSHLAKG] |  |  | 102 | none | none |  |  | 
WSHLAQALSHLAQALSHLAQALSHLAQA [PSPF-HQA, WSHLAQA LSHLAQA LSHLAQA LSHLAQA] |  |  | 105 | none | none |  |  | 
WSHLAQGLSHLAQGLSHLAQGLSHLAQG [PSPF-HQG, WSHLAQG LSHLAQG LSHLAQG LSHLAQG] |  |  | 104 | none | none |  |  | 
WSELAKGLSELAKGLSELAKGLSELAKG [PSPF-EKG] |  |  |  |  |  | 0.31 | 0.14 | 6.5
